The values below come from PubChem BioAssay (NCI).

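Five concentrations, 48 hours, 96-well plates. TGI denotes the concentration required for complete inhibition of growth.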

Some test systems named below: XF 498 CNS; UO-31 renal; HCT-116 colon; 786-0 renal; SW-620 colon; SNB-19 CNS; CAKI-1 renal; HL-60(TB) leukemia; SK-MEL-2 melanoma; SK-OV-3 ovarian; A498 renal; IGROV1 ovarian; DMS 114 small cell lung; NCI-H226 lung; TK-10 renal; MCF7 breast; PC-3 prostate; DU-145 prostate; MDA-MB-231 breast.
What all share (experiment): growth of human tumour cells (NCI), 48 h

Regarding `C[N+](C)(C)CCc1ccccc1`, the TGI in the assay on XF 498 CNS, with UO-31 renal, with HCT-116 colon, in the assay with 786-0 renal, in the assay on SW-620 colon and in the assay with SNB-19 CNS was over 100 µM in each case. Further, the TGI with CAKI-1 renal, in the assay with HL-60(TB) leukemia, with SK-MEL-2 melanoma, in the assay with SK-OV-3 ovarian, in the assay with A498 renal and in the assay with IGROV1 ovarian was over 100 µM in each case. The TGI in the assay on DMS 114 small cell lung, in the assay on NCI-H226 lung and in the assay with TK-10 renal was over 100 µM each time.

Consider `CC(=O)Oc1cc2c(cc1OC(C)=O)OCC(c1ccccc1)C2` (stereo unspecified), for which the TGI was 25.3 µM in the assay on XF 498 CNS; 58.4 µM in the assay with UO-31 renal; 57.4 µM in the assay on HCT-116 colon; 18.5 µM in the assay with SW-620 colon; 48.5 µM with SNB-19 CNS; 66.8 µM with MCF7 breast. For the same compound, the TGI in the assay on CAKI-1 renal came out at 39.2 µM; with HL-60(TB) leukemia it was 9.01 µM; with SK-MEL-2 melanoma, 54.7 µM; in the assay with SK-OV-3 ovarian, 72.3 µM; with A498 renal, 12.2 µM; with IGROV1 ovarian it was 74.1 µM. The results for the TGI with DMS 114 small cell lung and in the assay with NCI-H226 lung were 32.3 µM and 48.5 µM, respectively.

Take `Nc1ccn(C2C=C(CO)C(O)C2O)c(=O)c1` (stereo unspecified): the TGI in the assay on UO-31 renal, in the assay with HCT-116 colon, in the assay on SW-620 colon, in the assay with SNB-19 CNS, in the assay with MCF7 breast and with CAKI-1 renal was over 625 µM each time. For the same compound, the TGI in the assay on HL-60(TB) leukemia, in the assay on SK-MEL-2 melanoma, in the assay on SK-OV-3 ovarian, with IGROV1 ovarian, in the assay on DMS 114 small cell lung and in the assay on NCI-H226 lung was over 625 µM in each case.

On to `CCCNC(=O)C(C)C1CCC2(C)C=CC(=O)C(C)=C2C1O` (stereo unspecified), for which the TGI in the assay on XF 498 CNS, in the assay on UO-31 renal, with HCT-116 colon, in the assay with SW-620 colon, in the assay with SNB-19 CNS and with MCF7 breast was over 100 µM in each case. For the same compound, the TGI with CAKI-1 renal, in the assay on HL-60(TB) leukemia, in the assay with SK-MEL-2 melanoma, in the assay on SK-OV-3 ovarian, in the assay on A498 renal and in the assay with IGROV1 ovarian was over 100 µM in each case. The TGI with DMS 114 small cell lung and in the assay on NCI-H226 lung was over 100 µM throughout.

As to `O=C(O)c1cc2c(ncc3c(=O)n(-c4ccccc4)[nH]c32)s1`, the TGI with XF 498 CNS, in the assay with UO-31 renal, with HCT-116 colon, with SW-620 colon, with CAKI-1 renal and in the assay on SK-MEL-2 melanoma was over 100 µM in each case. Further, the TGI with SK-OV-3 ovarian, in the assay with IGROV1 ovarian, in the assay with DMS 114 small cell lung, in the assay on NCI-H226 lung and in the assay with TK-10 renal was over 100 µM throughout.

As to `COc1c(Br)cc2c(c1OC)C(Br)CCC(Br)(Br)C2=O` (stereo unspecified), the TGI was found to be 2.89 µM with UO-31 renal; 0.853 µM with HCT-116 colon; 4.03 µM in the assay with PC-3 prostate; 1.46 µM with 786-0 renal; 1.58 µM in the assay with SW-620 colon; 14.1 µM in the assay on SNB-19 CNS. The TGI in the assay on DU-145 prostate was found to be 9.64 µM; in the assay on MCF7 breast, 6.13 µM; in the assay on CAKI-1 renal, 8.3 µM; in the assay with MDA-MB-231 breast, 8.32 µM; in the assay on HL-60(TB) leukemia, 3.09 µM; in the assay on SK-MEL-2 melanoma it was 4.4 µM. The TGI in the assay with SK-OV-3 ovarian came to 10.5 µM; in the assay on A498 renal it was 12.3 µM; in the assay on IGROV1 ovarian it was 5.76 µM; in the assay with NCI-H226 lung, 5.84 µM; in the assay on TK-10 renal, 8.39 µM.

Regarding `OCCNCCN1CCN(CCCN2c3ccccc3Sc3ccc(C(F)(F)F)cc32)CC1`, the TGI in the assay on HCT-116 colon is 31.7 µM; with PC-3 prostate it was 62.1 µM; in the assay with 786-0 renal, 31 µM; with SW-620 colon, 35.3 µM; with SNB-19 CNS, 49.2 µM; in the assay on DU-145 prostate it was over 100 µM. Moreover, the TGI was 39.8 µM in the assay with MCF7 breast; over 100 µM in the assay with CAKI-1 renal; 35.5 µM in the assay on MDA-MB-231 breast; over 100 µM with HL-60(TB) leukemia; 37.5 µM with SK-MEL-2 melanoma; 77.9 µM with SK-OV-3 ovarian. In addition, the TGI in the assay with A498 renal is over 100 µM; with IGROV1 ovarian it was over 100 µM; in the assay on NCI-H226 lung, 49.9 µM; in the assay on TK-10 renal, 37.2 µM.

Turning to `O=C(CCl)NNC1=Nc2ccc(Cl)cc2SC1`, the TGI with XF 498 CNS came to 3.92 µM; in the assay with UO-31 renal, 3.49 µM; with HCT-116 colon, 3.2 µM; in the assay on SW-620 colon it was 4.22 µM; in the assay with SNB-19 CNS it was 26.4 µM; in the assay with MCF7 breast, 7.62 µM. Further, the TGI worked out at 3.3 µM in the assay with HL-60(TB) leukemia; 14 µM with SK-MEL-2 melanoma; 16.7 µM in the assay on SK-OV-3 ovarian; 35.1 µM with A498 renal; 3.58 µM with IGROV1 ovarian; 3.86 µM in the assay with DMS 114 small cell lung. In addition, the TGI in the assay on NCI-H226 lung was 6.16 µM.

For the compound `Cc1ccc(C2OC(COCc3ccc(Cl)cc3)C(OCc3ccc(Cl)cc3)C2O)cc1` (stereo unspecified), the TGI was 22.6 µM with XF 498 CNS; 23.8 µM in the assay on UO-31 renal; over 100 µM in the assay on HCT-116 colon; 49.5 µM with SW-620 colon; 56.7 µM with SNB-19 CNS; 38.3 µM in the assay with CAKI-1 renal. The TGI was found to be 31 µM with SK-MEL-2 melanoma; 15.3 µM in the assay on SK-OV-3 ovarian; 35.5 µM with IGROV1 ovarian; 22.2 µM in the assay with DMS 114 small cell lung; 38.5 µM with NCI-H226 lung; 29.7 µM in the assay on TK-10 renal.

Regarding `NCCSS(=O)(=O)CCN`, the TGI in the assay with UO-31 renal, in the assay on HCT-116 colon, with PC-3 prostate, in the assay on 786-0 renal, in the assay on SW-620 colon and in the assay on SNB-19 CNS was over 100 µM throughout. Moreover, the TGI in the assay on DU-145 prostate, with MCF7 breast, with CAKI-1 renal, with MDA-MB-231 breast, with HL-60(TB) leukemia and in the assay with SK-MEL-2 melanoma was over 100 µM in each case. For the same compound, the TGI in the assay on SK-OV-3 ovarian, in the assay with A498 renal, in the assay on IGROV1 ovarian, in the assay on NCI-H226 lung and in the assay with TK-10 renal was over 100 µM throughout.
